Data from article PMC6337485, “Olive Biophenols Reduces Alzheimer’s Pathology in SH-SY5Y Cells and APPswe Mice” (International Journal of Molecular Sciences, 2018).
pIC50: −log10 of the molar value. Read-outs that look alike come from different tables or passages of the source.

Key:
[1] = molecular target: T1, Aβ42 fibrils (Homo sapiens, UniProt P05067); assay: Thioflavin-T (ThT) fluorometric assay, Aβ42 fibril inhibition; type: biochemical; conditions: for Thioflavin-T Assay % Inhibition: highest concentration, 1000 µM standard
T1 sequence (P05067 672-713 limits assumed): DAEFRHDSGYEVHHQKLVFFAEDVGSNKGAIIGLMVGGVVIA

[2] = tested on: SH-SY5Y cells; assay: Aβ42 induced SH-SY5Y cells toxicity and olive biophenols treatment (MTT viability); conditions: 1000 µM standard, 24 h pre-incubation, then 25 µM Aβ42 for 24 h
[3] = tested on: SH-SY5Y cells
[4] = molecular target: T1, Aβ42 fibrils; assay: Congo red binding assay, Aβ42 fibril inhibition; type: biochemical; conditions: for Congo-Red Assay % Inhibition: highest concentration, 1000 µM standard
[5] = tested on: SH-SY5Y cells; remark: listed apart in the source
[6] = tested on: BACE-1 enzyme; set-up: method as in PMID 29772299; conditions: among olive biophenols; cited from earlier work
[7] = molecular target: T1, Aβ42 fibrils; assay: Transmission electron microscope (TEM) imaging of Aβ42 fibrils with olive biophenols; type: biochemical; conditions: biophenol ≥200 µM, 20 µM Aβ42 fibrils, 24 h, 37 °C
Protocol: Ten µL aliquot of each sample was spotted onto a glow-discharged, carbon-coated formvar grid and incubated for 30 min. The droplet then was displaced with an equal volume of 2.5% glutaraldehyde (v/v) and incubated for an additional 5 min. Finally, the grid was stained with 10 μL of 3% 0.22 µm filtered uranyl acetate (v/v) twice, and the solution was gently wicked off using Whatman’s grade-1 qualitative filter paper and the grid was then air-dried. Samples were examined by using a Hitachi H7100FA TEM (Hitachi, Japan) at the Centre for Advanced Microscopy, Australian National University, Canberra. All the images were captured at a voltage of 125 kV and an instrumental magnification of 2000×.

[8] = tested on: SH-SY5Y cells; set-up: method as in PMID 29109370; conditions: cited from earlier work
[9] = tested on: SH-SY5Y cells; conditions: human, 1000 µM
[10] = tested on: SH-SY5Y cells; conditions: human, 1000 µM; remark: listed apart in the source
[11] = standard biophenols 10–1000 µM, pre-formed Aβ42 fibril, 2 h, room temperature
[12] = 1000 µM standard, 24 h pre-incubation, then 25 µM Aβ42 and 200 µM copper for 24 h
[13] = 1000 µM standard, 24 h pre-incubation, then 25 µM Aβ42 and 200 µM L-DOPA for 24 h

In the case of `O=C(O)/C=C/c1ccc(O)c(O)c1` [Caffeic acid (CA), Caffeic acid], the “Thioflavin-T Assay IC50” value [1, 11] was “unable to achieve IC50 value”, the “Aβ-SH-SY5Y Toxicity % Viability” value [2] was 62 ± 0.53% and the “Aβ-Cu-SH-SY5Y Toxicity % Viability” value [3, 12] was 62 ± 0.93%. The “Congo-Red Assay IC50” value [4, 11] was “unable to achieve IC50 value” and the “Aβ-L-DOPA-SH-SY5Y Toxicity % Viability” value [5, 13] was 67 ± 0.43%.
With `OCCc1ccc(O)c(O)c1` [Hydroxytyrosol (HT), Hydroxytyrosol] the “Thioflavin-T Assay % Inhibition” value [1] was 45 ± 0.47%, the “Thioflavin-T Assay IC50” value [1, 11] was “unable to achieve IC50 value” and the “Aβ-SH-SY5Y Toxicity % Viability” value [2] was 60 ± 1.00%. For the same molecule, the “Aβ-Cu-SH-SY5Y Toxicity % Viability” value [3, 12] was 60 ± 0.84%, the “Congo-Red Assay % Inhibition” value [4] was 50 ± 0.4% and the pIC50 ([4]; read-out: Congo-Red Assay IC50) was 4.01. For the same molecule, the “Aβ-L-DOPA-SH-SY5Y Toxicity % Viability” value [5, 13] was 64 ± 1.02%.
With `O=c1cc(-c2ccc(O)c(O)c2)oc2cc(O)cc(O)c12` [Luteolin (LU), Luteolin] the pIC50 [1] was 4.43, the “Thioflavin-T Assay % Inhibition” value [1] was 64 ± 0.4% and the “Aβ-SH-SY5Y Toxicity % Viability” value [2] was 65 ± 0.39%. For the same molecule, the “Aβ-Cu-SH-SY5Y Toxicity % Viability” value [3, 12] was 67 ± 0.52%, the “Congo-Red Assay % Inhibition” value [4] was 61 ± 0.33% and the pIC50 ([4]; read-out: Congo-Red Assay IC50) was 4.33. The “Aβ-L-DOPA-SH-SY5Y Toxicity % Viability” value [5, 13] was 69 ± 0.87%.
In the case of `CC(Cc1ccc(O)c(O)c1)C(C)Cc1ccc(O)c(O)c1` (stereo not shown) [Nordihroguaretic acid (NDGA), Nordihydroguaiaretic acid, reference compound], the “Thioflavin-T Assay % Inhibition” value [1] was 70 ± 0.5%, the pIC50 [1, 11] was 4.81 and the “Congo-Red Assay % Inhibition” value [4] was 69 ± 0.4%. It also gave a pIC50 ([4]; standard biophenols 10–1000 µM, pre-formed Aβ42 fibril, 2 h, room temperature, read-out: Congo-Red Assay IC50) of 4.84.
In the case of `C/C=C1/[C@H](O[C@@H]2O[C@H](CO)[C@@H](O)[C@H](O)[C@H]2O)OC=C(C(=O)OC)[C@H]1CC(=O)OCCc1ccc(O)c(O)c1` [Oleuropein (OL), Oleuropein], the BACE-1 enzyme inhibition [6] is listed as “strongest inhibitor”, the pIC50 [1] is listed as 4.64 and the “Thioflavin-T Assay % Inhibition” value [1] is listed as 61 ± 0.33%. The “Aβ-SH-SY5Y Toxicity % Viability” value [2] was 68 ± 0.69%, the “Effect on formed Aβ42 fibrils (TEM)” value [7] was “significant reduction in both the size and number of fibrils” and the “Aβ-Cu-SH-SY5Y Toxicity % Viability” value [3, 12] was 76 ± 1.61%. For the same molecule, the “Congo-Red Assay % Inhibition” value [4] was 65 ± 0.3%, the pIC50 ([4]; read-out: Congo-Red Assay IC50) was 4.44 and the “Aβ-L-DOPA-SH-SY5Y Toxicity % Viability” value [5, 13] was 74 ± 0.23%.
With `O=c1c(O)c(-c2ccc(O)c(O)c2)oc2cc(O)cc(O)c12` [Quercetin (QU), Quercetin] the pIC50 [1] was 4.34, the “Thioflavin-T Assay % Inhibition” value [1] was 57 ± 0.34% and the “Effect on formed Aβ42 fibrils (TEM)” value [7] was “moderate reduction in fibril formation”. The “Aβ-Cu-SH-SY5Y Toxicity % Viability” value ([3]; human, SH-SY5Y neuroblastoma cells, 1000 µM) was 60 ± 0.52%, the pIC50 [4] was 4.13 and the “Congo-Red Assay % Inhibition” value [4] was 55 ± 0.71%. For the same molecule, the “Protection of SH-SY5Y cells against Cu-induced toxicity” value [8] was “rescue SH-SY5Y cells”.
With `C[C@@H]1O[C@@H](OC[C@H]2O[C@@H](Oc3c(-c4ccc(O)c(O)c4)oc4cc(O)cc(O)c4c3=O)[C@H](O)[C@@H](O)[C@@H]2O)[C@H](O)[C@H](O)[C@H]1O` [Rutin (RU), Rutin] the “Thioflavin-T Assay % Inhibition” value [1] was 49 ± 0.25%, the “Thioflavin-T Assay IC50” value [1, 11] was “unable to reach the IC50 concentration” and the “Aβ-SH-SY5Y Toxicity % Viability” value [2] was 59 ± 0.59%. For the same molecule, the “Aβ-Cu-SH-SY5Y Toxicity % Viability” value [3, 12] was 54 ± 0.71%, the “Congo-Red Assay % Inhibition” value [4] was 48 ± 0.33% and the “Congo-Red Assay IC50” value [4, 11] was “unable to achieve IC50 value”. For the same molecule, the “Aβ-L-DOPA-SH-SY5Y Toxicity % Viability” value [5, 13] was 57 ± 0.85%.
For `C[C@@H]1O[C@@H](O[C@@H]2[C@@H](O)[C@H](OCCc3ccc(O)c(O)c3)O[C@H](CO)[C@H]2OC(=O)/C=C/c2ccc(O)c(O)c2)[C@H](O)[C@H](O)[C@H]1O` [Verbascoside (VB), Verbascoside], the BACE-1 enzyme inhibition [6] is listed as “strongest inhibitor”, the “Aβ-SH-SY5Y Toxicity % Viability” value [9] is listed as 66 ± 1.11% and the pIC50 [1] is listed as 4.65. The “Thioflavin-T Assay % Inhibition” value [1] was 61 ± 0.35%, the “Aβ-Cu-SH-SY5Y Toxicity % Viability” value [10] was 70 ± 0.48% and the “Congo-Red Assay % Inhibition” value [4] was 57 ± 0.51%. For the same molecule, the pIC50 ([4]; read-out: Congo-Red Assay IC50) was 4.22, the “Aβ-L-DOPA-SH-SY5Y Toxicity % Viability” value ([5]; human, 1000 µM) was 69 ± 0.66% and the “Protection of SH-SY5Y cells against Cu-induced toxicity” value [8] was “rescue SH-SY5Y cells”.
